Test results reported in patent US4503244A, “Sebosuppressive topical cosmetic preparations containing alkoxybenzoic acid esters, process for inhibiting sebum production and alkoxybenzoic acid esters” (Henkel Kommanditgesellschaft, priority 1983, dated 1985).

Assays:
[1] = tested on: brown skin surface lipid of the rats; experiment: Antiseborrheic effect: browning of the shaved back of rats, visually assessed (half-back application, 14 days); assay type: in vivo, male Wistar rats; conditions: for Sebum reduction: (ΔP/Pk)·100
From the text: The antiseborrheic effect was closely studied using the animal tests described in the following:
The test animals were male Wistar rats having a body weight of 220 to 230 g at the beginning of the tests. The degree of browning on the shaved back of the rats was visually assessed. Browning is produced by the brown skin surface lipid of the rats. This test is based on the observation that young female rats and also male rats washed with a tenside solution or with a lipid solvent and also male rats systematically treated with estrogen only have the normal light, pink-colored skin after shaving. At the same time, only comparatively very small quantities of lipids can be extracted from the shaved hair.
In order to assess effectiveness, the test substances in solution in alcohol were each brushed onto half the back of 6 rats. The other half was only treated with the solvent minus active substances.
Over the test period of 14 days, the test substances were applied once daily for a total of 9 days. A group of 6 rats which remained completely untreated was used for further control. At the end of the test, the animals were shaved on their back and sides and were visually assessed independently by an examination panel of 6 people under double blind conditions.
The first criterion evaluated was whether the majority of examiners correctly recognized the treated side, differentiation being carried out as follows:
The second criterion evaluated was the difference between the righthand side and the lefthand side, each examiner having to award 1 point per animal on the following basis:
lighter side--0 point and
both sides the same--0.5 point
Significant differences between the untreated and treated sides in the second method of evaluation indicate the local effectiveness of a substance.
The third criterion evaluated was the difference in intensity between the shades of brown using the following scale:
In the third method or evaluation, the points total differences are worked out between the untreated control animals and the treated and untreated sides of the test animals, significant differences between the control animals and the treated side of the test animals again indicating the effectiveness of a substance.
At the same time, there is generally also a distinct difference between the untreated and treated sides of the groups of test animals. However, this difference is not always as clear as that between the control animals and the treated sides, for which there may be various reasons, including for example mechanical transfer of substance from one side to the other or solvent influence.
The following scheme was used for differentiating the effects according to evaluation methods 2 and 3:
Percentage sebum reduction
The sebum reduction is calculated from the points difference by working out the quotient between the points difference ΔP and the number of points for the control group Pk and expressing the value obtained in percent.
Sebum reduction=(ΔP/Pk)·100[%]

[2] = tested on: seborrhea / production of sebum; conditions: background art; cited from earlier work

With CCCCCCCCCCOc1ccc(C(=O)OCCOC)cc1 [A, p-decyloxybenzoic acid 2-methoxy-ethyl ester] the “Evaluation method 1 (percentage of examiners noticing an effect)” value ([1]; Conc. 0.1% in alcohol) was “++ (100%)”, the “Evaluation method 2 (points difference between treated and untreated side)” value ([1]; Conc. 0.1% in alcohol) was “++ (very large (≥99.9% probability))” and the “Evaluation method 3 (difference in intensity between shades of brown vs untreated control animals)” value ([1]; Conc. 0.1% in alcohol) was “++ (very large (≥99.9% probability))”. For the same molecule, the Sebum reduction ([1]; Conc. 0.1% in alcohol) was 69%, the “Evaluation method 1 (percentage of examiners noticing an effect)” value ([1]; Conc. 1.0% in alcohol) was “++ (100%)” and the “Evaluation method 2 (points difference between treated and untreated side)” value ([1]; Conc. 1.0% in alcohol) was “++ (very large (≥99.9% probability))”. The “Evaluation method 3 (difference in intensity between shades of brown vs untreated control animals)” value ([1]; Conc. 1.0% in alcohol) was “++ (very large (≥99.9% probability))” and the Sebum reduction ([1]; Conc. 1.0% in alcohol) was 100%.
For CCCCCCCCCCOc1ccc(C(=O)OCCOCC)cc1 [B, p-decyloxybenzoic acid 2-ethoxy-ethyl ester], the “Evaluation method 1 (percentage of examiners noticing an effect)” value ([1]; Conc. 0.1% in alcohol) was “++ (100%)”, the “Evaluation method 2 (points difference between treated and untreated side)” value ([1]; Conc. 0.1% in alcohol) was “++ (very large (≥99.9% probability))” and the “Evaluation method 3 (difference in intensity between shades of brown vs untreated control animals)” value ([1]; Conc. 0.1% in alcohol) was “++ (very large (≥99.9% probability))”. The Sebum reduction ([1]; Conc. 0.1% in alcohol) was 30%, the “Evaluation method 1 (percentage of examiners noticing an effect)” value ([1]; Conc. 1.0% in alcohol) was “++ (100%)” and the “Evaluation method 2 (points difference between treated and untreated side)” value ([1]; Conc. 1.0% in alcohol) was “++ (very large (≥99.9% probability))”. For the same molecule, the “Evaluation method 3 (difference in intensity between shades of brown vs untreated control animals)” value ([1]; Conc. 1.0% in alcohol) was “++ (very large (≥99.9% probability))” and the Sebum reduction ([1]; Conc. 1.0% in alcohol) was 93%.
In the case of CCCCCCCCCCOc1ccc(C(=O)OCCOCCOC)cc1 [C, p-decyloxybenzoic acid 2-(2-methoxyethoxy)-ethyl ester], the “Evaluation method 1 (percentage of examiners noticing an effect)” value ([1]; Conc. 0.1% in alcohol) is reported as “++ (100%)”, the “Evaluation method 2 (points difference between treated and untreated side)” value ([1]; Conc. 0.1% in alcohol) is reported as “++ (very large (≥99.9% probability))” and the “Evaluation method 3 (difference in intensity between shades of brown vs untreated control animals)” value ([1]; Conc. 0.1% in alcohol) is reported as “++ (very large (≥99.9% probability))”. The Sebum reduction ([1]; Conc. 0.1% in alcohol) was 26%, the “Evaluation method 1 (percentage of examiners noticing an effect)” value ([1]; Conc. 1.0% in alcohol) was “++ (100%)” and the “Evaluation method 2 (points difference between treated and untreated side)” value ([1]; Conc. 1.0% in alcohol) was “++ (very large (≥99.9% probability))”. The “Evaluation method 3 (difference in intensity between shades of brown vs untreated control animals)” value ([1]; Conc. 1.0% in alcohol) was “++ (very large (≥99.9% probability))” and the Sebum reduction ([1]; Conc. 1.0% in alcohol) was 100%.
For CCCCCCCCCCOc1ccc(C(=O)OCCO)cc1 [D, p-decyloxybenzoic acid 2-hydroxy-ethyl ester], the “Evaluation method 1 (percentage of examiners noticing an effect)” value ([1]; Conc. 1.0% in alcohol) was “++ (100%)”, the “Evaluation method 2 (points difference between treated and untreated side)” value ([1]; Conc. 1.0% in alcohol) was “++ (very large (≥99.9% probability))” and the “Evaluation method 3 (difference in intensity between shades of brown vs untreated control animals)” value ([1]; Conc. 1.0% in alcohol) was “++ (very large (≥99.9% probability))”. For the same molecule, the Sebum reduction ([1]; Conc. 1.0% in alcohol) was 98%.
In the case of CCCCCCCCCCOc1ccc(C(=O)OCCN(CC)CC)cc1 [E, p-decyloxybenzoic acid 2-diethylaminoethyl ester], the “Evaluation method 1 (percentage of examiners noticing an effect)” value ([1]; Conc. 0.1% in alcohol) is reported as “++ (100%)”, the “Evaluation method 2 (points difference between treated and untreated side)” value ([1]; Conc. 0.1% in alcohol) is reported as “++ (very large (≥99.9% probability))” and the “Evaluation method 3 (difference in intensity between shades of brown vs untreated control animals)” value ([1]; Conc. 0.1% in alcohol) is reported as “++ (very large (≥99.9% probability))”. For the same molecule, the Sebum reduction ([1]; Conc. 0.1% in alcohol) was 80%, the “Evaluation method 1 (percentage of examiners noticing an effect)” value ([1]; Conc. 1.0% in alcohol) was “++ (100%)” and the “Evaluation method 2 (points difference between treated and untreated side)” value ([1]; Conc. 1.0% in alcohol) was “++ (very large (≥99.9% probability))”. The “Evaluation method 3 (difference in intensity between shades of brown vs untreated control animals)” value ([1]; Conc. 1.0% in alcohol) was “++ (very large (≥99.9% probability))” and the Sebum reduction ([1]; Conc. 1.0% in alcohol) was 90%.
With CCCCCCCCCCCCOc1ccc(C(=O)OCCOC)cc1 [F, p-dodecyloxybenzoic acid 2-methoxy-ethyl ester] the “Evaluation method 1 (percentage of examiners noticing an effect)” value ([1]; Conc. 0.2% in alcohol) was “++ (100%)”, the “Evaluation method 2 (points difference between treated and untreated side)” value ([1]; Conc. 0.2% in alcohol) was “++ (very large (≥99.9% probability))” and the “Evaluation method 3 (difference in intensity between shades of brown vs untreated control animals)” value ([1]; Conc. 0.2% in alcohol) was “++ (very large (≥99.9% probability))”. The Sebum reduction ([1]; Conc. 0.2% in alcohol) was 92%, the “Evaluation method 1 (percentage of examiners noticing an effect)” value ([1]; Conc. 1.0% in alcohol) was “++ (100%)” and the “Evaluation method 2 (points difference between treated and untreated side)” value ([1]; Conc. 1.0% in alcohol) was “++ (very large (≥99.9% probability))”. For the same molecule, the “Evaluation method 3 (difference in intensity between shades of brown vs untreated control animals)” value ([1]; Conc. 1.0% in alcohol) was “++ (very large (≥99.9% probability))” and the Sebum reduction ([1]; Conc. 1.0% in alcohol) was 91%.
For CCCCCCCCCCOc1ccc(C(=O)OCC(=O)OC)cc1 [G, p-decyloxybenzoyloxy-acetic acid methyl ester], the “Evaluation method 1 (percentage of examiners noticing an effect)” value ([1]; Conc. 0.5% in alcohol) was “++ (100%)”, the “Evaluation method 2 (points difference between treated and untreated side)” value ([1]; Conc. 0.5% in alcohol) was “++ (very large (≥99.9% probability))” and the “Evaluation method 3 (difference in intensity between shades of brown vs untreated control animals)” value ([1]; Conc. 0.5% in alcohol) was “++ (very large (≥99.9% probability))”. The Sebum reduction ([1]; Conc. 0.5% in alcohol) was 82%.
For CCN(CC)C(=O)c1cccc(C)c1 [N,N-diethyl-m-toluamide], the “sebosuppressive / antiseborrheic effect of known substances” value [2] is given as “neither N,N-diethyl-m-toluamide nor phenylpentadienoic acid show, however, fully satisfactory sebosuppressive properties”.
In the case of O=C(O)C=CC=Cc1ccccc1 [phenylpentadienoic acid], the “sebosuppressive / antiseborrheic effect of known substances” value [2] is given as “neither N,N-diethyl-m-toluamide nor phenylpentadienoic acid show, however, fully satisfactory sebosuppressive properties”.
